Data as given in PubChem BioAssay AID1919013 (Molecular Pharmacology Branch, DTP, NCI, 2023).
“And” between values parts separate entries of the source, which are not always exact repeats. Equal entries are not always repeated. One block for each compound: values may come before it.

System: LG0703-F498-PDC complex spheroid growth
Assay: Anticancer human tumor LG0703-F498-PDC patient-derived lung adenocarcinoma cell line growth inhibition [AhR]
Conditions: for viability, T/C: stronger effect = lower value
Outline: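 Spheroids combined tumor cells with HUVEC endothelial cells and human MSCs as stroma. AhR antagonists were paired with standard or investigational drugs, each dosed in half-log steps down from near clinical Cmax, or from 10 microM where Cmax was unknown.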

[1] = curve of first compound, second compound 0.1 µM
[2] = curve of first compound, second compound 0.316 µM
[3] = curve of first compound, second compound 1 µM
[4] = curve of first compound, second compound 3.16 µM
[5] = curve of first compound, second compound 10 µM
[6] = second compound 0.1 µM, first compound 0.00949 µM
[7] = second compound 0.1 µM, first compound 0.03 µM
[8] = second compound 0.1 µM, first compound 0.0949 µM
[9] = second compound 0.1 µM, first compound 0.3 µM
[10] = second compound 0.1 µM, first compound 0.949 µM
[11] = second compound 0.1 µM, first compound 3 µM
[12] = second compound 0.316 µM, first compound 0.00949 µM
[13] = second compound 0.316 µM, first compound 0.03 µM
[14] = second compound 0.316 µM, first compound 0.0949 µM
[15] = second compound 0.316 µM, first compound 0.3 µM
[16] = second compound 0.316 µM, first compound 0.949 µM
[17] = second compound 0.316 µM, first compound 3 µM
[18] = second compound 1 µM, first compound 0.00949 µM
[19] = second compound 1 µM, first compound 0.03 µM
[20] = second compound 1 µM, first compound 0.0949 µM
[21] = second compound 1 µM, first compound 0.3 µM
[22] = second compound 1 µM, first compound 0.949 µM
[23] = second compound 1 µM, first compound 3 µM
[24] = second compound 3.16 µM, first compound 0.00949 µM
[25] = second compound 3.16 µM, first compound 0.03 µM
[26] = second compound 3.16 µM, first compound 0.0949 µM
[27] = second compound 3.16 µM, first compound 0.3 µM
[28] = second compound 3.16 µM, first compound 0.949 µM
[29] = second compound 3.16 µM, first compound 3 µM
[30] = second compound 10 µM, first compound 0.00949 µM
[31] = second compound 10 µM, first compound 0.03 µM
[32] = second compound 10 µM, first compound 0.0949 µM
[33] = second compound 10 µM, first compound 0.3 µM
[34] = second compound 10 µM, first compound 0.949 µM
[35] = second compound 10 µM, first compound 3 µM
[36] = second compound 0.1 µM, first compound 0.0316 µM
[37] = second compound 0.1 µM, first compound 0.1 µM
[38] = second compound 0.1 µM, first compound 0.316 µM
[39] = second compound 0.1 µM, first compound 1 µM
[40] = second compound 0.1 µM, first compound 3.16 µM
[41] = second compound 0.1 µM, first compound 10 µM
[42] = second compound 0.316 µM, first compound 0.0316 µM
[43] = second compound 0.316 µM, first compound 0.1 µM
[44] = second compound 0.316 µM, first compound 0.316 µM
[45] = second compound 0.316 µM, first compound 1 µM
[46] = second compound 0.316 µM, first compound 3.16 µM
[47] = second compound 0.316 µM, first compound 10 µM
[48] = second compound 1 µM, first compound 0.0316 µM
[49] = second compound 1 µM, first compound 0.1 µM
[50] = second compound 1 µM, first compound 0.316 µM
[51] = second compound 1 µM, first compound 1 µM
[52] = second compound 1 µM, first compound 3.16 µM
[53] = second compound 1 µM, first compound 10 µM
[54] = second compound 3.16 µM, first compound 0.0316 µM
[55] = second compound 3.16 µM, first compound 0.1 µM
[56] = second compound 3.16 µM, first compound 0.316 µM
[57] = second compound 3.16 µM, first compound 1 µM
[58] = second compound 3.16 µM, first compound 3.16 µM
[59] = second compound 3.16 µM, first compound 10 µM
[60] = second compound 10 µM, first compound 0.0316 µM
[61] = second compound 10 µM, first compound 0.1 µM
[62] = second compound 10 µM, first compound 0.316 µM
[63] = second compound 10 µM, first compound 1 µM
[64] = second compound 10 µM, first compound 3.16 µM
[65] = second compound 10 µM, first compound 10 µM
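Note: luminescence taken as a proxy for viable cell amount.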
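Throughout, for viability, T/C: percent of DMSO vehicle control where 100% means growth equal to vehicle.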

SMILES: CCN(c1cc(-c2ccc(CN3CCOCC3)cc2)cc(C(=O)NCc2c(C)cc(C)[nH]c2=O)c1C)C1CCOCC1 + Cc1cncc(-c2nc(NCCc3c[nH]c4ccccc34)c3ncn(C(C)C)c3n2)c1
IC50 [1]: > 3000 nM
IC50 [2]: > 3000 nM
IC50 [3]: > 3000 nM
IC50 [4]: < 9.49 nM
IC50 [5]: < 9.49 nM
viability, T/C [6]: 106%
viability, T/C [7]: 110%
viability, T/C [8]: 106%
viability, T/C [9]: 102%
viability, T/C [10]: 121%
viability, T/C [11]: 123%
viability, T/C [12]: 118%
viability, T/C [13]: 104%
viability, T/C [14]: 120%
viability, T/C [15]: 104%
viability, T/C [16]: 106%
viability, T/C [17]: 125%
viability, T/C [18]: 119%
viability, T/C [19]: 110%
viability, T/C [20]: 112%
viability, T/C [21]: 111%
viability, T/C [22]: 109%
viability, T/C [23]: 120%
viability, T/C [24]: 30.5%
viability, T/C [25]: 26.3%
viability, T/C [26]: 29.8%
viability, T/C [27]: 30.8%
viability, T/C [28]: 27.9%
viability, T/C [29]: 35.5%
viability, T/C [30]: 1.09%
viability, T/C [31]: 1.47%
viability, T/C [32]: 1.79%
viability, T/C [33]: 1.93%
viability, T/C [34]: 0.83%
viability, T/C [35]: 1.74%

SMILES: CC(C)c1c(-c2ccccc2)nc2c(C#N)c[nH]n2c1=O + CC(CO)NC(=O)c1cc(-c2ccc(Cl)cc2)nn(-c2cnn(C)c2)c1=O
IC50 [1]: > 10000 nM
IC50 [2]: > 10000 nM
IC50 [3]: > 10000 nM
IC50 [4]: > 10000 nM
IC50 [5]: > 10000 nM
viability, T/C [36]: 94.2%
viability, T/C [37]: 96.5%
viability, T/C [38]: 87.5%
viability, T/C [39]: 86.1%
viability, T/C [40]: 87.3%
viability, T/C [41]: 80.8%
viability, T/C [42]: 88.2%
viability, T/C [43]: 95.5%
viability, T/C [44]: 100%
viability, T/C [45]: 78.9%
viability, T/C [46]: 84.1%
viability, T/C [47]: 78.5%
viability, T/C [48]: 82%
viability, T/C [49]: 88.7%
viability, T/C [50]: 83.8%
viability, T/C [51]: 87.3%
viability, T/C [52]: 83.4%
viability, T/C [53]: 82%
viability, T/C [54]: 70.3%
viability, T/C [55]: 96.7%
viability, T/C [56]: 73.3%
viability, T/C [57]: 69%
viability, T/C [58]: 85%
viability, T/C [59]: 78.1%
viability, T/C [60]: 73%
viability, T/C [61]: 76.5%
viability, T/C [62]: 66.2%
viability, T/C [63]: 69.2%
viability, T/C [64]: 67.4%
viability, T/C [65]: 69.4%

SMILES: CCN(c1cc(-c2ccc(CN3CCOCC3)cc2)cc(C(=O)NCc2c(C)cc(C)[nH]c2=O)c1C)C1CCOCC1 + Cc1ccccc1N=Nc1ccc(NC(=O)c2ccnn2C)c(C)c1
IC50 [1]: > 3000 nM
IC50 [2]: > 3000 nM
IC50 [3]: > 3000 nM
IC50 [4]: > 3000 nM
IC50 [5]: > 3000 nM
viability, T/C [6]: 97.8%
viability, T/C [7]: 104%
viability, T/C [8]: 104%
viability, T/C [9]: 107%
viability, T/C [10]: 112%
viability, T/C [11]: 118%
viability, T/C [12]: 94.3%
viability, T/C [13]: 106%
viability, T/C [14]: 95%
viability, T/C [15]: 100%
viability, T/C [16]: 102%
viability, T/C [17]: 106%
viability, T/C [18]: 97.7%
viability, T/C [19]: 93.2%
viability, T/C [20]: 115%
viability, T/C [21]: 92%
viability, T/C [22]: 97.3%
viability, T/C [23]: 99.8%
viability, T/C [24]: 95.9%
viability, T/C [25]: 99.9%
viability, T/C [26]: 102%
viability, T/C [27]: 94.2%
viability, T/C [28]: 87.1%
viability, T/C [29]: 101%
viability, T/C [30]: 81.9%
viability, T/C [31]: 86.1%
viability, T/C [32]: 96.4%
viability, T/C [33]: 86.1%
viability, T/C [34]: 82.2%
viability, T/C [35]: 98.5%

SMILES: COc1cc(C2c3cc4c(cc3C(OC3OC5COC(C)OC5C(O)C3O)C3COC(=O)C23)OCO4)cc(OC)c1O (centres undefined) + Cc1cncc(-c2nc(NCCc3c[nH]c4ccccc34)c3ncn(C(C)C)c3n2)c1
IC50 [1]: > 10000 nM
IC50 [2]: > 10000 nM
IC50 [3]: > 10000 nM
IC50 [4]: 5510 nM
IC50 [5]: < 31.6 nM
viability, T/C [36]: 105%
viability, T/C [37]: 96.7%
viability, T/C [38]: 102%
viability, T/C [39]: 93.8%
viability, T/C [40]: 84.6%
viability, T/C [41]: 63.4%
viability, T/C [42]: 112%
viability, T/C [43]: 110%
viability, T/C [44]: 96.8%
viability, T/C [45]: 85.4%
viability, T/C [46]: 77.9%
viability, T/C [47]: 71.5%
viability, T/C [48]: 89.7%
viability, T/C [49]: 126%
viability, T/C [50]: 115%
viability, T/C [51]: 93.3%
viability, T/C [52]: 72.2%
viability, T/C [53]: 64.5%
viability, T/C [54]: 60.3%
viability, T/C [55]: 64.1%
viability, T/C [56]: 62.8%
viability, T/C [57]: 54.3%
viability, T/C [58]: 51.6%
viability, T/C [59]: 47.9%
viability, T/C [60]: 1.19%
viability, T/C [61]: 1.35%
viability, T/C [62]: 1.7%
viability, T/C [63]: 1.47%
viability, T/C [64]: 1.3%
viability, T/C [65]: 2.49%

SMILES: O=C(C=Cc1cccc(S(=O)(=O)Nc2ccccc2)c1)NO
viability, T/C (compound 0.0316 µM): 101% and 111% and 110%
viability, T/C (compound 0.1 µM): 111% and 119% and 116%
viability, T/C (compound 0.316 µM): 94% and 91.7% and 82.7%
viability, T/C (compound 1 µM): 48.1% and 42% and 45.8%
viability, T/C (compound 3.16 µM): 12% and 11.7% and 7.36%
viability, T/C (compound 10 µM): 1.95% and 2.42% and 1.39%
IC50 (curve of compound): 966 nM and 835 nM and 827 nM

Now from value to compound, other results behind:

IC50 [1]: > 300 nM
IC50 [2]: > 300 nM
IC50 [3]: > 300 nM
IC50 [4]: > 300 nM
IC50 [5]: > 300 nM
SMILES: Nc1ncn(C2CC(O)C(CO)S2)c(=O)n1 (centres undefined) + CC(CO)NC(=O)c1cc(-c2ccc(Cl)cc2)nn(-c2cnn(C)c2)c1=O
viability, T/C (second compound 0.1 µM, first compound 0.000949 µM): 89.3%
viability, T/C (second compound 0.1 µM, first compound 0.003 µM): 96.6%
viability, T/C [6]: 95.6%
viability, T/C [7]: 102%
viability, T/C [8]: 92.8%
viability, T/C [9]: 91.8%
viability, T/C (second compound 0.316 µM, first compound 0.000949 µM): 108%
viability, T/C (second compound 0.316 µM, first compound 0.003 µM): 93.9%
viability, T/C [12]: 96.2%
viability, T/C [13]: 103%
viability, T/C [14]: 97.1%
viability, T/C [15]: 97.8%
viability, T/C (second compound 1 µM, first compound 0.000949 µM): 82.4%
viability, T/C (second compound 1 µM, first compound 0.003 µM): 92%
viability, T/C [18]: 90.2%
viability, T/C [19]: 76.9%
viability, T/C [20]: 84.8%
viability, T/C [21]: 97.7%
viability, T/C (second compound 3.16 µM, first compound 0.000949 µM): 80.5%
viability, T/C (second compound 3.16 µM, first compound 0.003 µM): 90.9%
viability, T/C [24]: 78.3%
viability, T/C [25]: 94.8%
viability, T/C [26]: 96.1%
viability, T/C [27]: 89.5%
viability, T/C (second compound 10 µM, first compound 0.000949 µM): 86.9%
viability, T/C (second compound 10 µM, first compound 0.003 µM): 86.7%
viability, T/C [30]: 84.9%
viability, T/C [31]: 86.7%
viability, T/C [32]: 81.9%
viability, T/C [33]: 92.2%

IC50 (curve of compound): 1160 nM and 920 nM and 523 nM
SMILES: Nc1ccccc1NC(=O)c1ccc(CNC(=O)OCc2cccnc2)cc1
viability, T/C (compound 0.0316 µM): 90.9% and 98.6% and 92.2%
viability, T/C (compound 0.1 µM): 105% (2×) and 83.9%
viability, T/C (compound 0.316 µM): 94.5% and 81.1% and 70.5%
viability, T/C (compound 1 µM): 55.2% and 47.8% and 24.5%
viability, T/C (compound 3.16 µM): 10.7% and 14.8% and 2.77%
viability, T/C (compound 10 µM): 0.41% and 1.49% and 0.42%
